Measurements taken from PMC9516332 (Frontiers in Oncology, 2022).
Read-outs that look alike come from different tables or passages of the source.

Assays:
Test in all cases: Kinase panel profiling at 1 µmol/L (MSA or IMAP), percentage inhibition
Assay type in all cases: biochemical
[1] = target: T1, panel of 255 wild-type kinases (Homo sapiens, UniProt O15530); settings: read-out: %-inhibition at 1 µmol/L, PDK1
T1 sequence (O15530 1-556): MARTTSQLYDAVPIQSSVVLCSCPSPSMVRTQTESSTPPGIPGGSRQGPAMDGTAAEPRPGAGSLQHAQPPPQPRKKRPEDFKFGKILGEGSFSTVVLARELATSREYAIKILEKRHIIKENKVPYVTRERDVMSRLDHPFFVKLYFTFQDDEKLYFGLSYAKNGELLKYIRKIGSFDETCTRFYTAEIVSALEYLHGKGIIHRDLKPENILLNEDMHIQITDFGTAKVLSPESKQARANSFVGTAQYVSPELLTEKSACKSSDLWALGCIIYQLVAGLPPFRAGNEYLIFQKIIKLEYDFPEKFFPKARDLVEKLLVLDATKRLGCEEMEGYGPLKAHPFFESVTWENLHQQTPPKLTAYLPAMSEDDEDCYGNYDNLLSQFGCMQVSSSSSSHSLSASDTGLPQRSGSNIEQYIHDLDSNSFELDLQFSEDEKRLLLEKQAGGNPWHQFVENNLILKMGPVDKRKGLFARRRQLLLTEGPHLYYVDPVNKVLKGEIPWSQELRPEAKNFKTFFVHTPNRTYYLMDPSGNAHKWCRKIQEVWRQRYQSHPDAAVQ

[2] = target: panel of 255 wild-type kinases (Homo sapiens, UniProt P09619); settings: read-out: %-inhibition at 1 µmol/L, PDGFRβ
[3] = target: panel of 255 wild-type kinases (Homo sapiens, UniProt P51451); settings: read-out: %-inhibition BLK
[4] = target: panel of 255 wild-type kinases (Homo sapiens, UniProt Q00534); settings: read-out: %-inhibition CDK6/CycD3
[5] = target: T2, panel of 255 wild-type kinases (Homo sapiens, UniProt Q12851); settings: read-out: %-inhibition at 1 µmol/L, MAP4K2
T2 sequence (Q12851 1-820): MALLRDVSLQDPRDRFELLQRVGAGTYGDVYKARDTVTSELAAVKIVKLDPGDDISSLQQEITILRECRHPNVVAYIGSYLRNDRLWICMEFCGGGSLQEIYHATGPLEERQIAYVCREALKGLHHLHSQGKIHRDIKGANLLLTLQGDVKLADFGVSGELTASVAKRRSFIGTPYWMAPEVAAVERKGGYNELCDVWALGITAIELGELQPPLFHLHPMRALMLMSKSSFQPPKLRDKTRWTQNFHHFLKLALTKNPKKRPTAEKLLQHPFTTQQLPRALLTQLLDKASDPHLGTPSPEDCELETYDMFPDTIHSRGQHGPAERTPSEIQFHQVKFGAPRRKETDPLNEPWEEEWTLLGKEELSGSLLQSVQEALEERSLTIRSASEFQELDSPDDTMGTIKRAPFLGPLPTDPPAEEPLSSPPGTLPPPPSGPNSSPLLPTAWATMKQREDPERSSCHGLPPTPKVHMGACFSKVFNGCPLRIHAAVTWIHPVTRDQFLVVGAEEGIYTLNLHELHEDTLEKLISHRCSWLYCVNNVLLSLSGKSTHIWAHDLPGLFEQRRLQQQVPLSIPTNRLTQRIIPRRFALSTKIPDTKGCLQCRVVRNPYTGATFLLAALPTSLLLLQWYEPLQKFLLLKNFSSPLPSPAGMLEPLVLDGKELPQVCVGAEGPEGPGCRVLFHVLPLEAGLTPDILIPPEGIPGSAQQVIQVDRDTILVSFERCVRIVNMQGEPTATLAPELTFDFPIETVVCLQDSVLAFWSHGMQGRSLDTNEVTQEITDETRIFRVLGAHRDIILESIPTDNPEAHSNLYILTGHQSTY

[6] = target: T3, panel of 255 wild-type kinases (Homo sapiens, UniProt Q13976); settings: read-out: %-inhibition at 1 µmol/L, PGK
T3 sequence (Q13976 1-671): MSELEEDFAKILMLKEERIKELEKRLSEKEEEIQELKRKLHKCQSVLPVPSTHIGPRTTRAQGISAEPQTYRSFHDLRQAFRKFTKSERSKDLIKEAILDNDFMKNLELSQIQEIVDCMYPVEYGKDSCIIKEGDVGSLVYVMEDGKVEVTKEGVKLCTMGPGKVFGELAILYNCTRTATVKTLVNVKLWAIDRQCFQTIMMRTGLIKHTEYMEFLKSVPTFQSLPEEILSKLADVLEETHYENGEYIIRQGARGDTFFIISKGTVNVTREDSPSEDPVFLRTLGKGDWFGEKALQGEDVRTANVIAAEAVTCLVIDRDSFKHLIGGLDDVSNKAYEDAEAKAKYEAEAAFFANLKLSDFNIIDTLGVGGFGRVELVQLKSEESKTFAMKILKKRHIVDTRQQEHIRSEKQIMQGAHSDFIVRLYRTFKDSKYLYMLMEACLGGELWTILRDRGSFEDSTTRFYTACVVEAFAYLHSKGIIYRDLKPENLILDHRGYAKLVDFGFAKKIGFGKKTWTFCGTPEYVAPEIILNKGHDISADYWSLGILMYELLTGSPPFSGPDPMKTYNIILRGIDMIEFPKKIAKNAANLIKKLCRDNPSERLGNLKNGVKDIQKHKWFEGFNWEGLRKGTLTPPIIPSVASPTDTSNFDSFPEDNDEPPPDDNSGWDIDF

[7] = target: panel of 255 wild-type kinases (Homo sapiens, UniProt Q9P1W9); settings: read-out: %-inhibition at 1 µmol/L, PIM2
[8] = kinase PDK1, 1 µmol/L single concentration
[9] = kinase PDGFRβ, 1 µmol/L single concentration
[10] = BLK kinase assay, 1 µmol/L single concentration
[11] = CDK6/CycD3 kinase assay, 1 µmol/L single concentration
[12] = kinase MAP4K2, 1 µmol/L single concentration
[13] = kinase PGK, 1 µmol/L single concentration
[14] = kinase PIM2, 1 µmol/L single concentration

inhibition at 1 µM [2, 9] [%]	Compound	inhibition at 1 µM [1, 8] [%]	inhibition at 1 µM [3, 10] [%]	inhibition at 1 µM [4, 11] [%]	inhibition at 1 µM [5, 12] [%]	inhibition at 1 µM [6, 13] [%]	inhibition at 1 µM [7, 14] [%]	inhibition at 1 µM [1] [%]	inhibition at 1 µM [2] [%]	inhibition at 1 µM [3] [%]	inhibition at 1 µM [4] [%]	inhibition at 1 µM [5] [%]	inhibition at 1 µM [6] [%]	inhibition at 1 µM [7] [%]
0.0362	Cc1nc(NC(=O)N2CCC[C@H]2C(N)=O)sc1-c1ccnc(C(C)(C)C(F)(F)F)c1 [alpelisib]	-0.422	-13	2	5.56	-3	-6.4	–	–	–	–	–	–	–
-2.23	Cn1cnc2c(F)c(Nc3ccc(Br)cc3F)c(C(=O)NOCCO)cc21 [binimetinib]	0.386	10	-0.0739	-1.27	-3	-6.4	–	–	–	–	–	–	–
–	CNC(=O)c1ccc(-c2cnc3ncc(Cc4ccc5ncccc5c4)n3n2)cc1F [capmatinib]	–	–	–	–	–	–	4	20	-4	-1.65	-0.216	-4.5	-4.65
68	COc1cc2ncnc(Nc3ccc(F)c(Cl)c3)c2cc1NC(=O)/C=C/CN1CCCCC1 [dacomitinib]	-7	77	-6	-2.38	4	-3	–	–	–	–	–	–	–
2	C[C@H](Nc1ncnc2nc[nH]c12)c1cc2cccc(Cl)c2c(=O)n1-c1ccccc1 [duvelisib]	2.42	-12	1.75	2.36	1.63	-6.49	–	–	–	–	–	–	–
–	CN1CCN(c2ccc(C(=O)Nc3n[nH]c4ccc(Cc5cc(F)cc(F)c5)cc34)c(NC3CCOCC3)c2)CC1 [entrectinib]	0.207	86	1.6	85	–	-7.56	–	–	–	–	–	–	–
-0.157	O=C(Nc1cnn2ccc(N3CCC[C@@H]3c3cc(F)ccc3F)nc12)N1CC[C@H](O)C1 [larotrectinib]	2.15	-4	-0.0563	-2	-2.33	-6.57	–	–	–	–	–	–	–
99	CO[C@]1(C(=O)N[C@@H](C)c2ccc(-n3cc(F)cn3)nc2)CC[C@H](c2nc(C)cc(Nc3cc(C)[nH]n3)n2)CC1 [pralsetinib]	9	84	-1.2	3.5	13	-4	–	–	–	–	–	–	–
–	CCn1c(=O)c(-c2cc(NC(=O)Nc3ccccc3)c(F)cc2Br)cc2cnc(NC)cc21 [ripretinib]	-7	26	-7	44	-0.449	-3	–	106	–	–	–	–	–
94	COc1ccc(CN2C3CC2CN(c2ccc(-c4cc(OCC(C)(C)O)cn5ncc(C#N)c45)cn2)C3)cn1 [selpercatinib]	7	76	0.675	4.23	0.302	-6	–	–	–	–	–	–	–
20	Cn1cnc2c(F)c(Nc3ccc(Br)cc3Cl)c(C(=O)NOCCO)cc21 [selumetinib]	2.11	-6	-3.49	2.67	-2	-3.45	–	–	–	–	–	–	–

Compound	inhibition at 1 µM [2, 9] [%]	inhibition at 1 µM [1, 8] [%]	inhibition at 1 µM [3, 10] [%]	inhibition at 1 µM [4, 11] [%]	inhibition at 1 µM [5, 12] [%]	inhibition at 1 µM [6, 13] [%]	inhibition at 1 µM [7, 14] [%]	inhibition at 1 µM [1] [%]	inhibition at 1 µM [2] [%]	inhibition at 1 µM [3] [%]	inhibition at 1 µM [4] [%]	inhibition at 1 µM [5] [%]	inhibition at 1 µM [6] [%]	inhibition at 1 µM [7] [%]
Cn1cc(-c2cc3c(N4CCN(c5ncc([C@@](C)(N)c6ccc(F)cc6)cn5)CC4)ncnn3c2)cn1 [avapritinib]	95	6.57	50	-0.371	14	-2.58	-2.22	–	–	–	–	–	–	–
COC(=O)N[C@@H](C)CNc1nccc(-c2cn(C(C)C)nc2-c2cc(Cl)cc(NS(C)(=O)=O)c2F)n1 [encorafenib]	1.38	-2.17	10	6	4	-1.28	-1.43	–	–	–	–	–	–	–
CCc1nc(C(N)=O)c(Nc2ccc(N3CCC(N4CCN(C)CC4)CC3)c(OC)c2)nc1NC1CCOCC1 [gilteritinib]	105	-1.87	94	4	99	41	-1.37	–	–	–	–	–	–	–
CCN1CCN(c2ccc(Nc3cc(N(C)C(=O)Nc4c(Cl)c(OC)cc(OC)c4Cl)ncn3)cc2)CC1 [infigratinib]	59	1.36	21	17	23	-2	-7	–	–	–	–	–	–	–
C[C@H]1Oc2cc(cnc2N)-c2c(nn(C)c2C#N)CN(C)C(=O)c2ccc(F)cc21 [lorlatinib]	2.32	0.602	-6	2.65	20	0.684	-3.36	–	–	–	–	–	–	–
CCN1C(=O)N(c2c(F)c(OC)cc(OC)c2F)Cc2cnc3[nH]c(CN4CCOCC4)cc3c21 [pemigatinib]	73	0.293	27	48	8	-1.82	-6	–	–	–	–	–	–	–
FC(F)(F)c1ccc(CNc2ccc(Cc3c[nH]c4ncc(Cl)cc34)cn2)cn1 [pexidartinib]	64	-4.67	18	-6.52	31	14	-2.72	–	–	–	–	–	–	–
